# Measured values taken from US8916702B2 (priority 2012, dated 2014).
# System: HCV pseudoparticles (genotype 1a HCV E1 and E2 envelope, H77C isolate)
# Experiment: microbe, parasite or virus in culture
# Format: cell-based
# Conditions: Hepatitis C virus, Huh-7, 48 h, HCV pseudoparticle infection of Huh7 cells, luciferase 2 days after infection; average of duplicates
row,Compound,EC50
1,COC(=O)[C@H](CNC(=O)C(=O)Nc1ccc(OC)nc1)NC(=O)c1ccc(Nc2nc(NC3(c4ccc(Cl)cc4)CC3)nc(OCC(F)(F)F)n2)cc1 [Compound 1242],0.32 nM
2,"CCOC(=O)[C@H](CNC(=O)C(N)=O)NC(=O)c1ccc(Nc2nc(NC3(c4ccc(Cl)cc4)CC3)nc(OCC(F)(F)F)n2)cc1 [Compound 1025, (S)-ethyl 3-(2-amino-2-oxoacetamido)-2-(4-(4-(1-(4-chlorophenyl)cyclopropylamino)-6-(2,2,2-trifluoroethoxy)-1,3,5-triazin-2-ylamino)benzamido)propanoate]",1.73 nM
3,COC(=O)[C@@H](CCNC(=O)C(=O)NCC1(c2ccccc2)CC1)NC(=O)c1ccc(Nc2nc(NC3(c4ccc(Cl)cc4)CC3)nc(OCC(F)(F)F)n2)cc1 [Compound 1378],0.23 nM
4,CCc1nccn1CC1(CNC(=O)C(=O)NCC[C@@H](NC(=O)c2ccc(Nc3nc(NC4(c5ccc(Cl)cc5)CC4)nc(OCC(F)(F)F)n3)cc2)C(=O)OC)CC1 [Compound 1386],2.76 nM

# Same assay, conditions: Hepatitis C virus, Huh-7, 48 h, HCV pseudoparticles (genotype 1a, H77C) in Huh7 cells; average of duplicate; luciferase 2 days after infection
row,Compound,EC50
1,"CC(C)(CNC(=O)C(N)=O)CNC(=O)c1ccc(Nc2nc(NC3(c4ccc(Cl)cc4)CC3)nc(OCC(F)(F)F)n2)cc1F [Compound 3388, N^1-(3-(4-((4-((1-(4-chlorophenyl)cyclopropyl)amino)-6-(2,2,2-trifluoroethoxy)-1,3,5-triazin-2-yl)amino)-2-fluorobenzamido)-2,2-dimethylpropyl)oxalamide]",0.013 nM
2,O=C(NCC[C@H](NC(=O)c1ccc(Nc2nc(NC3(c4ccc(Cl)cc4)CC3)nc(OCC(F)(F)F)n2)cc1)C(=O)O)C(=O)Nc1ccc(Cn2ccnc2)cc1 [Compound 3540],26.2 nM
3,CC(C)(CNC(=O)C(=O)Nc1cccc(F)c1F)CNC(=O)c1ccc(Nc2nc(NC3(c4ccc(Cl)cc4)CC3)nc(OCC(F)(F)F)n2)cc1 [Compound 3261],0.072 nM
4,CC(C)(CNC(=O)C(=O)Nc1ccccc1C(=O)c1ccccc1)CNC(=O)c1ccc(Nc2nc(NC3(c4ccc(Cl)cc4)CC3)nc(OCC(F)(F)F)n2)cc1 [Compound 3141],0.11 nM

# Same assay, conditions: Hepatitis C virus, Huh-7, 48 h, read-out: Activity (EC50 class), HCV pseudoparticle infection of Huh7 cells, luciferase 2 days after infection; EC50 expressed as class A/B
row,Compound,EC50
1,COC(=O)[C@H](CNC(=O)C(=O)Nc1ccc(OC)nc1)NC(=O)c1ccc(Nc2nc(NC3(c4ccc(Cl)cc4)CC3)nc(OCC(F)(F)F)n2)cc1 [Compound 1242],0.01 to 10 nM
2,CC(C)(CNC(=O)C(=O)Nc1ccc(CC(=O)N2CCCC2)cc1)CNC(=O)c1ccc(Nc2nc(NC3(c4ccc(Cl)cc4)CC3)nc(OCC(F)(F)F)n2)cc1 [Compound 1592],0.01 to 10 nM
3,CC(C)(C)OC(=O)NC1CCC(CNC(=O)C(=O)NCC[C@H](NC(=O)c2ccc(Nc3nc(NC4(c5ccc(Cl)cc5)CC4)nc(OCC(F)(F)F)n3)cc2)C(=O)O)CC1 (stereo partly drawn) [Compound 1210],0.01 to 10 nM
4,CC(C)(CNC(=O)C(=O)Nc1ccc(Oc2nn[nH]n2)cc1)CNC(=O)c1ccc(Nc2nc(NC3(c4ccc(Cl)cc4)CC3)nc(OCC(F)(F)F)n2)cc1 [Compound 1490],0.01 to 10 nM
5,COC(=O)[C@H](CCNC(=O)C(=O)Nc1ccc(O)cc1)NC(=O)c1ccc(Nc2nc(NC3(c4ccc(Cl)cc4)CC3)nc(OCC(F)(F)F)n2)cc1 [Compound 1526],0.01 to 10 nM
6,O=C(NC[C@H](NC(=O)c1ccc(Nc2nc(NC3(c4ccc(Cl)cc4)CC3)nc(OCC(F)(F)F)n2)cc1)C(=O)O)C(=O)Nc1cccc(F)c1 [Compound 1357],0.01 to 10 nM
7,O=C(NC[C@H](NC(=O)c1ccc(Nc2nc(NC3(c4ccc(Cl)cc4)CC3)nc(OCC(F)(F)F)n2)cc1)C(=O)O)C(=O)NC1CCCC1 [Compound 1037],0.01 to 10 nM
8,"NC(=O)C(=O)N1CCCC(C(NC(=O)c2ccc(Nc3nc(NC4(c5ccc(Cl)cc5)CC4)nc(OCC(F)(F)F)n3)cc2)C(=O)O)C1 (stereo not drawn) [Compound 1018, 2-(1-(2-amino-2-oxoacetyl)piperidin-3-yl)-2-(4-(4-(1-(4-chlorophenyl)cyclopropylamino)-6-(2,2,2-trifluoroethoxy)-1,3,5-triazin-2-ylamino)benzamido)acetic acid]",0.01 to 10 nM
9,COC(=O)[C@@H](CCNC(=O)C(=O)NCC1(CO)CC1)NC(=O)c1ccc(Nc2nc(NC3(c4ccc(Cl)cc4)CC3)nc(OCC(F)(F)F)n2)cc1 [Compound 1380],0.01 to 10 nM
10,Cc1cccc(NC(=O)C(=O)NCC(C)(C)CNC(=O)c2ccc(Nc3nc(NC4(c5ccc(Cl)cc5)CC4)nc(OCC(F)(F)F)n3)cc2)c1 [Compound 1597],0.01 to 10 nM
11,COC(=O)[C@H](CCNC(=O)C(=O)NCc1ccc(F)cc1)NC(=O)c1ccc(Nc2nc(NC3(c4ccc(Cl)cc4)CC3)nc(OCC(F)(F)F)n2)cc1 [Compound 1145],0.01 to 10 nM
12,"CCOC(=O)[C@H](CNC(=O)C(N)=O)NC(=O)c1ccc(Nc2nc(NC3(c4ccc(Cl)cc4)CC3)nc(OCC(F)(F)F)n2)cc1 [Compound 1025, (S)-ethyl 3-(2-amino-2-oxoacetamido)-2-(4-(4-(1-(4-chlorophenyl)cyclopropylamino)-6-(2,2,2-trifluoroethoxy)-1,3,5-triazin-2-ylamino)benzamido)propanoate]",0.01 to 10 nM
13,COC(=O)[C@@H](CCNC(=O)C(=O)NCC1(c2ccccc2)CC1)NC(=O)c1ccc(Nc2nc(NC3(c4ccc(Cl)cc4)CC3)nc(OCC(F)(F)F)n2)cc1 [Compound 1378],0.01 to 10 nM
14,CCC1CCC(NC(=O)C(=O)NC[C@H](NC(=O)c2ccc(Nc3nc(NC4(c5ccc(Cl)cc5)CC4)nc(OCC(F)(F)F)n3)cc2)C(=O)O)CC1 (stereo partly drawn) [Compound 1093],0.01 to 10 nM
15,Cn1ccc(NC(=O)C(=O)NCC[C@H](NC(=O)c2ccc(Nc3nc(NC4(c5ccc(Cl)cc5)CC4)nc(OCC(F)(F)F)n3)cc2)C(=O)O)n1 [Compound 1263],0.01 to 10 nM
16,O=C(NCCc1ccccc1F)C(=O)NC[C@H](NC(=O)c1ccc(Nc2nc(NC3(c4ccc(Cl)cc4)CC3)nc(OCC(F)(F)F)n2)cc1)C(=O)O [Compound 1402],0.01 to 10 nM
17,CC(C)(CNC(=O)C(=O)Nc1cccc(F)c1)CNC(=O)c1ccc(Nc2nc(NC3(c4ccc(Cl)cc4)CC3)nc(OCC(F)(F)F)n2)cc1 [Compound 1546],0.01 to 10 nM
18,O=C(NCC[C@@H](NC(=O)c1ccc(Nc2nc(NC3(c4ccc(Cl)cc4)CC3)nc(OCC(F)(F)F)n2)cc1)C(=O)O)C(=O)Nc1ccc(F)c(F)c1F [Compound 1538],0.01 to 10 nM
19,O=C(NC[C@H](NC(=O)c1ccc(Nc2nc(NC3(c4ccc(Cl)cc4)CC3)nc(OCC(F)(F)F)n2)cc1)C(=O)O)C(=O)NC1CCCCC1O (stereo partly drawn) [Compound 1081],0.01 to 10 nM
20,"CCOC(=O)[C@H](CCCNC(=O)C(N)=O)NC(=O)c1ccc(Nc2nc(NC3(c4ccc(Cl)cc4)CC3)nc(OCC(F)(F)F)n2)cc1 [Compound 1029, (S)-ethyl 5-(2-amino-2-oxoacetamido)-2-(4-(4-(1-(4-chlorophenyl)cyclopropylamino)-6-(2,2,2-trifluoroethoxy)-1,3,5-triazin-2-ylamino)benzamido)pentanoate]",0.01 to 10 nM
21,COC(=O)[C@H](CCNC(=O)C(=O)Nc1cc(F)cc(F)c1)NC(=O)c1ccc(Nc2nc(NC3(c4ccc(Cl)cc4)CC3)nc(OCC(F)(F)F)n2)cc1 [Compound 1506],0.01 to 10 nM
22,CCC1(CC)CC1CNC(=O)C(=O)NCC[C@H](NC(=O)c1ccc(Nc2nc(NC3(c4ccc(Cl)cc4)CC3)nc(OCC(F)(F)F)n2)cc1)C(=O)O (stereo partly drawn) [Compound 1209],0.01 to 10 nM
23,CCc1nccn1CC1(CNC(=O)C(=O)NCC[C@@H](NC(=O)c2ccc(Nc3nc(NC4(c5ccc(Cl)cc5)CC4)nc(OCC(F)(F)F)n3)cc2)C(=O)OC)CC1 [Compound 1386],0.01 to 10 nM

# Same assay, conditions: Hepatitis C virus, Huh-7, 48 h, read-out: Activity (EC50 class), HCV pseudoparticles, Huh7 cells, luciferase 2 days after infection; average of duplicates
row,Compound,EC50
1,Cc1cc2nc(NC(=O)C(=O)NCC(C)(C)CNC(=O)c3ccc(Nc4nc(NC5(c6ccc(Cl)cc6)CC5)nc(OCC(F)(F)F)n4)cc3)sc2cc1C [Compound 3820],0.01 to 10 nM
2,CC(=O)Nc1ccc(NC(=O)C(=O)NC[C@H](NC(=O)c2ccc(Nc3nc(NC4(c5ccc(Cl)cc5)CC4)nc(OCC(F)(F)F)n3)cc2)C(=O)O)cn1 [Compound 3762],0.01 to 10 nM
3,O=C(NC[C@H](NC(=O)c1ccc(Nc2nc(NC3(c4ccc(Cl)cc4)CC3)nc(OCC(F)(F)F)n2)cc1)C(=O)Cl)C(=O)Nc1cccc(OCc2ccccc2)c1 [Compound 3742],0.01 to 10 nM
4,CC(C)(CNC(=O)C(=O)Nc1nc2ccc(F)cc2s1)CNC(=O)c1ccc(Nc2nc(NC3(c4ccc(Cl)cc4)CC3)nc(OCC(F)(F)F)n2)cc1 [Compound 3804],0.01 to 10 nM
5,CC(C)(CNC(=O)C(=O)Nc1ccc(-c2nc3ccccc3o2)cc1)CNC(=O)c1ccc(Nc2nc(NC3(c4ccc(Cl)cc4)CC3)nc(OCC(F)(F)F)n2)cc1 [Compound 3831],0.01 to 10 nM
6,CC(C)n1ccc(NC(=O)C(=O)NCC(C)(C)CNC(=O)c2ccc(Nc3nc(NC4(c5ccc(Cl)cc5)CC4)nc(OCC(F)(F)F)n3)cc2)n1 [Compound 3836],0.01 to 10 nM

# Same assay, conditions: Hepatitis C virus, Huh-7, read-out: Activity (EC50 class), HCV pseudoparticles (genotype 1a, H77C) in Huh7 cells; EC50 expressed as class A/B
row,Compound,EC50
1,COC(=O)[C@H](CCNC(=O)C(=O)Nc1ccc(-c2cnco2)cc1)NC(=O)c1ccc(Nc2nc(NC3(c4ccc(Cl)cc4)CC3)nc(OCC(F)(F)F)n2)cc1 [Compound 3122],0.01 to 10 nM
2,"CC(C)(CNC(=O)C(N)=O)CNC(=O)c1ccc(Nc2nc(NC3(c4ccc(Cl)cc4)CC3)nc(OCC(F)(F)F)n2)cc1F [Compound 3388, N^1-(3-(4-((4-((1-(4-chlorophenyl)cyclopropyl)amino)-6-(2,2,2-trifluoroethoxy)-1,3,5-triazin-2-yl)amino)-2-fluorobenzamido)-2,2-dimethylpropyl)oxalamide]",0.01 to 10 nM
3,O=C(NCC[C@H](NC(=O)c1ccc(Nc2nc(NC3(c4ccc(Cl)cc4)CC3)nc(OCC(F)(F)F)n2)cc1)C(=O)O)C(=O)Nc1ccc(Cn2ccnc2)cc1 [Compound 3540],10 to 1000 nM
4,COC(=O)/C(CCNC(=O)C(=O)Nc1cccc(-c2csc(C)n2)c1)=N\C(=O)c1ccc(Nc2nc(NC3(c4ccc(Cl)cc4)CC3)nc(OCC(F)(F)F)n2)cc1 [Compound 3596],0.01 to 10 nM
5,O=C(NC[C@H](NC(=O)c1ccc(Nc2nc(NC3(c4ccc(Cl)cc4)CC3)nc(OCC(F)(F)F)n2)cc1)C(=O)O)C(=O)Nc1ccc(CC(F)(F)F)cc1 [Compound 3297],0.01 to 10 nM
6,CC(C)(CNC(=O)C(=O)Nc1ccc(C(=O)c2ccccc2)cc1)CNC(=O)c1ccc(Nc2nc(NC3(c4ccc(Cl)cc4)CC3)nc(OCC(F)(F)F)n2)cc1 [Compound 3142],0.01 to 10 nM
7,CC(C)(CNC(=O)C(=O)Nc1cccc(F)c1F)CNC(=O)c1ccc(Nc2nc(NC3(c4ccc(Cl)cc4)CC3)nc(OCC(F)(F)F)n2)cc1 [Compound 3261],0.01 to 10 nM
8,CC(C)(CNC(=O)C(=O)Nc1ccccc1C(N)=O)CNC(=O)c1ccc(Nc2nc(NC3(c4ccc(Cl)cc4)CC3)nc(OCC(F)(F)F)n2)cc1 [Compound 3375],0.01 to 10 nM
9,COC(=O)[C@H](CCNC(=O)C(=O)Nc1ccc(N2CCN(Cc3ccccc3)CC2)cc1)NC(=O)c1ccc(Nc2nc(NC3(c4ccc(Cl)cc4)CC3)nc(OCC(F)(F)F)n2)cc1 [Compound 3131],0.01 to 10 nM
10,O=C(Nc1cc(F)cc(F)c1)C(=O)N(CCO)CCCNC(=O)c1ccc(Nc2nc(NC3(c4ccc(Cl)cc4)CC3)nc(OCC(F)(F)F)n2)cc1 [Compound 3507],0.01 to 10 nM
11,CC1CN(c2ccc(NC(=O)C(=O)NC/C(=N/C(=O)c3ccc(Nc4nc(NC5(c6ccc(Cl)cc6)CC5)nc(OCC(F)(F)F)n4)cc3)C(=O)O)cc2)CC(C)N1 (stereo not drawn) [Compound 3160],0.01 to 10 nM
12,CC(C)(CNC(=O)C(=O)Nc1ccc(C[Si](C)(C)C)cc1)CNC(=O)c1ccc(Nc2nc(NC3(c4ccc(Cl)cc4)CC3)nc(OCC(F)(F)F)n2)cc1 [Compound 3054],0.01 to 10 nM
13,Cc1nc(C(F)(F)F)ccc1NC(=O)C(=O)NCC(C)(C)CNC(=O)c1ccc(Nc2nc(NC3(c4ccc(Cl)cc4)CC3)nc(OCC(F)(F)F)n2)cc1 [Compound 3249],0.01 to 10 nM
14,CC(C)(CNC(=O)C(=O)Nc1ccccc1C(=O)c1ccccc1)CNC(=O)c1ccc(Nc2nc(NC3(c4ccc(Cl)cc4)CC3)nc(OCC(F)(F)F)n2)cc1 [Compound 3141],0.01 to 10 nM
